Among the data in PubChem BioAssay (NCI) are TGI values, retold here.

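Where inhibition never reached the appropriate level, the endpoint shown equals the highest concentration tested. Otherwise, values were interpolated linearly from a five-concentration, 48-hour dose response in 96-well plates. At the TGI there is no net growth.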 A value given as a limit tells only on which side of the number the result lay.

Test systems include OVCAR-4 ovarian; MALME-3M melanoma; 786-0 renal; SF-295 CNS; SK-MEL-2 melanoma; SK-MEL-28 melanoma; DU-145 prostate; SN12C renal; OVCAR-8 ovarian; SF-539 CNS; HCT-116 colon; NCI/ADR-RES ovarian; ACHN renal.
What all share (assay): NCI-60 cell line screen, 48 h

In the case of `Cc1ccc(N2C(=O)C(O)=C(C(=O)C(C)(C)C)C2c2ccc([N+](=O)[O-])cc2)cc1` (stereo not drawn), the TGI was 22.3 µM in the test with OVCAR-4 ovarian; 46 µM in the test with MALME-3M melanoma; 39.9 µM in the test on 786-0 renal; 88.8 µM in the test on SF-295 CNS; 58.5 µM with SK-MEL-2 melanoma; 63.6 µM in the test on SK-MEL-28 melanoma. The TGI is above 100 µM in the test on DU-145 prostate; 52.8 µM with SN12C renal; 59.1 µM in the test on OVCAR-8 ovarian; 63 µM with SF-539 CNS; 29.4 µM with HCT-116 colon; 53.8 µM in the test on NCI/ADR-RES ovarian. The TGI with ACHN renal is 45.9 µM.

In the case of `Nc1nc(SCc2ccccc2[N+](=O)[O-])c2[nH]cnc2n1`, the TGI was above 100 µM in the test with OVCAR-4 ovarian; above 67.4 µM in the test with MALME-3M melanoma; above 100 µM with 786-0 renal; above 100 µM in the test with SF-295 CNS; 90.3 µM in the test with SK-MEL-2 melanoma; above 100 µM in the test on SK-MEL-28 melanoma. In addition, the TGI in the test with DU-145 prostate, in the test with SN12C renal, in the test with OVCAR-8 ovarian, with SF-539 CNS, in the test on HCT-116 colon and in the test on NCI/ADR-RES ovarian was above 100 µM throughout. Besides, the TGI in the test on ACHN renal is above 100 µM.

For `CN(c1ccccc1Cl)S(=O)(=O)c1ccccc1`, the TGI in the test on OVCAR-4 ovarian, in the test on MALME-3M melanoma, with 786-0 renal, in the test with SF-295 CNS, in the test with SK-MEL-2 melanoma and in the test with SK-MEL-28 melanoma was above 100 µM each time. The TGI in the test with DU-145 prostate, with SN12C renal, with OVCAR-8 ovarian, in the test on SF-539 CNS, in the test with HCT-116 colon and in the test on NCI/ADR-RES ovarian was above 100 µM each time. This compound also yielded a TGI with ACHN renal above 100 µM.

Consider `COC(=O)Nc1nc2ccc(NS(=O)(=O)c3ccc(F)cc3)cc2[nH]1`, for which the TGI in the test on OVCAR-4 ovarian is above 100 µM; in the test on MALME-3M melanoma, above 100 µM; with 786-0 renal it was above 100 µM; in the test with SF-295 CNS, 70.4 µM; with SK-MEL-2 melanoma, above 100 µM; with SK-MEL-28 melanoma, above 100 µM. Further, the TGI with DU-145 prostate was above 100 µM; in the test on SN12C renal it was above 100 µM; with OVCAR-8 ovarian, above 100 µM; in the test with SF-539 CNS, 52.9 µM; in the test with HCT-116 colon, above 100 µM; in the test with NCI/ADR-RES ovarian, 54.2 µM. Moreover, the TGI in the test with ACHN renal is above 100 µM.

`CS(=O)(=O)OC1CCN(C2(c3cccc(O)c3)CCCCC2)CC1`: the TGI in the test with OVCAR-4 ovarian was above 100 µM; in the test on MALME-3M melanoma it was above 100 µM; with 786-0 renal, 92.4 µM; in the test with SF-295 CNS, above 100 µM; with SK-MEL-2 melanoma, above 100 µM; in the test on SK-MEL-28 melanoma, above 100 µM. Moreover, the TGI is above 100 µM in the test with DU-145 prostate; above 100 µM with SN12C renal; above 100 µM in the test with OVCAR-8 ovarian; 89.9 µM with SF-539 CNS; above 100 µM with HCT-116 colon; above 100 µM in the test on NCI/ADR-RES ovarian. Also, the TGI in the test with ACHN renal is above 100 µM.

As to `CC1=NN(c2cccc(Cl)c2)C2(C1)SCC(=O)N2c1nc2ccccc2s1` (stereo not drawn), the TGI in the test with OVCAR-4 ovarian was above 100 µM; with MALME-3M melanoma, above 100 µM; with 786-0 renal it was 56.1 µM; in the test on SF-295 CNS, 74.9 µM; with SK-MEL-2 melanoma, 49.2 µM; in the test on SK-MEL-28 melanoma, above 100 µM. Moreover, the TGI in the test with DU-145 prostate is above 100 µM; with SN12C renal, 69.1 µM; in the test with OVCAR-8 ovarian, above 100 µM; with SF-539 CNS, 45.8 µM; with HCT-116 colon, 36.7 µM; with NCI/ADR-RES ovarian it was above 100 µM. Also, the TGI with ACHN renal came to 79.9 µM.

Consider `CNc1nc(=O)c(C#N)c(-c2ccc(C)cc2)s1`, for which the TGI with OVCAR-4 ovarian, with MALME-3M melanoma, in the test on 786-0 renal, with SF-295 CNS, in the test on SK-MEL-2 melanoma and with SK-MEL-28 melanoma was above 100 µM each time. Besides, the TGI in the test on DU-145 prostate, in the test on SN12C renal, with OVCAR-8 ovarian, in the test on SF-539 CNS, in the test with HCT-116 colon and in the test with NCI/ADR-RES ovarian was above 100 µM in each case. In addition, the TGI with ACHN renal is above 100 µM.

Take `C/C(=N\Nc1ncnc2ccccc12)c1ccccn1`: the TGI is above 51.5 µM with OVCAR-4 ovarian; 1.58 µM with MALME-3M melanoma; 12.7 µM in the test on 786-0 renal; 17.9 µM in the test on SF-295 CNS; 33.9 µM in the test on SK-MEL-2 melanoma; 45.6 µM with SK-MEL-28 melanoma. For the same compound, the TGI with DU-145 prostate was 13.7 µM; with SN12C renal it was 6.71 µM; in the test with OVCAR-8 ovarian, 2.41 µM; with SF-539 CNS, 3.29 µM; in the test on HCT-116 colon, 13.9 µM; in the test on NCI/ADR-RES ovarian, 0.551 µM. This compound came in with a TGI in the test with ACHN renal of 8.46 µM.

In the case of `CC[C@@]1(O)C(=O)OCc2c1cc1n(c2=O)Cc2c-1nc1ccccc1c2/C=N\NC(=O)C(N)=O`, the TGI is above 100 µM in the test on OVCAR-4 ovarian; above 79.3 µM in the test on MALME-3M melanoma; 16 µM in the test on 786-0 renal; 14.8 µM in the test with SF-295 CNS; above 77.8 µM in the test with SK-MEL-2 melanoma; above 100 µM with SK-MEL-28 melanoma. In addition, the TGI with DU-145 prostate was 10.9 µM; in the test with SN12C renal, above 100 µM; in the test on OVCAR-8 ovarian it was 37 µM; in the test on SF-539 CNS, 0.177 µM; with HCT-116 colon, above 53.9 µM; with NCI/ADR-RES ovarian, above 73.5 µM. Further, in the test on ACHN renal, the TGI came to 0.814 µM.

For the compound `CCOC(=O)c1[nH]n(-c2ccccc2)c(=O)c1C=NC(=S)C(N)=S`, the TGI in the test with OVCAR-4 ovarian was above 100 µM; in the test with MALME-3M melanoma, above 100 µM; with 786-0 renal, 38.2 µM; with SF-295 CNS it was above 100 µM; in the test on SK-MEL-2 melanoma it was above 100 µM; with SK-MEL-28 melanoma it was above 100 µM. Also, the TGI with DU-145 prostate is above 100 µM; in the test on SN12C renal it was above 100 µM; in the test on OVCAR-8 ovarian, above 100 µM; with SF-539 CNS, 57.4 µM; in the test on HCT-116 colon, 44.6 µM; in the test with NCI/ADR-RES ovarian, above 100 µM. In the test on ACHN renal, this compound gave a TGI of 64.8 µM.

Regarding `CCOc1ccc(C(c2c(O)c3ccccc3oc2=O)c2c(O)c3ccccc3oc2=O)cc1`, the TGI in the test with OVCAR-4 ovarian is above 100 µM; in the test with MALME-3M melanoma, above 100 µM; with 786-0 renal it was above 100 µM; in the test on SF-295 CNS, above 100 µM; with SK-MEL-2 melanoma, 59.1 µM; in the test with SK-MEL-28 melanoma it was above 100 µM. In addition, the TGI with DU-145 prostate, in the test on SN12C renal, in the test with OVCAR-8 ovarian, with SF-539 CNS, with HCT-116 colon and with NCI/ADR-RES ovarian was above 100 µM in each case. The compound further had a TGI with ACHN renal above 100 µM.
